Measurements: the supplement of paper PMC10307832

Legend:
Assay in all cases: relative viability (nuclei count vs DMSO), 5 days (fraction); higher = more cells survive
Bortezomib + OSI-027 = compound: CC(C)C[C@H](NC(=O)[C@H](Cc1ccccc1)NC(=O)c1cnccn1)B(O)O [Bortezomib] + COc1cccc2cc(-c3nc([C@H]4CC[C@H](C(=O)O)CC4)n4ncnc(N)c34)[nH]c12 [OSI-027] (partner 0.5 µM)
Method in brief: (§1)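 Lung cancer cell lines in 1536-well plates were dosed by pin tool the day after seeding, either with one drug alone or with a fixed anchor-drug dose plus five library-drug doses (not always all listed) in √10 steps. After 5 days, cells were fixed and their nuclei stained in one step (final 0.05% Triton X-100, 1% formaldehyde, 1 ug/ml Hoechst), then counted on 4× images. Relative viability is the nuclei count in treated wells divided by that in vehicle wells. Values are medians of duplicate plates.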

Bortezomib + AZD7762 = compound: CC(C)C[C@H](NC(=O)[C@H](Cc1ccccc1)NC(=O)c1cnccn1)B(O)O [Bortezomib] + NC(=O)Nc1cc(-c2cccc(F)c2)sc1C(=O)N[C@H]1CCCNC1 [AZD7762] (partner 0.2 µM)
Method in brief: as §1

[1] = compound: CC1=CC(=NN1)NC2=CC(=NC(=N2)/C=C/C3=CC=CC=C3)N4CCN(CC4)C + CS(=O)(=O)N1CCN(Cc2cc3nc(-c4cccc5[nH]ncc45)nc(N4CCOCC4)c3s2)CC1 [Pictilisib] (partner 1 µM)
Method in brief: as §1

[2] = compound: CC1=CC(=NN1)NC2=CC(=NC(=N2)/C=C/C3=CC=CC=C3)N4CCN(CC4)C + C[C@]1(O)C[C@@H](c2nc(-c3ccc4ccc(-c5ccccc5)nc4c3)c3c(N)nccn32)C1 [Linsitinib] (partner 1 µM)
Method in brief: as §1

Row | Cell Line | relative viability (Bortezomib + OSI-027; first compound 0.0002 µM) | relative viability (Bortezomib + OSI-027; first compound 0.000632 µM) | relative viability (Bortezomib + OSI-027; first compound 0.002 µM) | relative viability (Bortezomib + OSI-027; first compound 0.006325 µM) | relative viability (Bortezomib + OSI-027; first compound 0.02 µM) | relative viability (Bortezomib + AZD7762; first compound 0.0002 µM) | relative viability (Bortezomib + AZD7762; first compound 0.000632 µM) | relative viability (Bortezomib + AZD7762; first compound 0.002 µM) | relative viability (Bortezomib + AZD7762; first compound 0.006325 µM) | relative viability (Bortezomib + AZD7762; first compound 0.02 µM) | relative viability ([1]; first compound 0.08 µM) | relative viability ([1]; first compound 0.253 µM) | relative viability ([1]; first compound 0.8 µM) | relative viability ([1]; first compound 2.53 µM) | relative viability ([1]; first compound 8 µM) | relative viability ([2]; first compound 0.08 µM) | relative viability ([2]; first compound 0.253 µM) | relative viability ([2]; first compound 0.8 µM) | relative viability ([2]; first compound 2.53 µM) | relative viability ([2]; first compound 8 µM)
1 | LC-2-ad | 0.76 | 0.621 | 0.986 | 0.209 | 0.174 | 0.828 | 0.787 | 0.878 | 0.271 | 0.182 | 0.46 | 0.356 | 0.247 | 0.0963 | 0.0784 | 0.732 | 0.803 | 0.473 | 0.122 | 0.0815
2 | NCI-H596 | 0.804 | 0.619 | 0.766 | 0.21 | 0.195 | 0.983 | 1.22 | 1.15 | 0.634 | 0.205 | 0.406 | 0.417 | 0.388 | 0.253 | 0.271 | 0.941 | 1.18 | 1.16 | 0.757 | 0.409
3 | NCI-H1437 | 0.86 | 0.825 | 0.871 | 0.138 | 0.132 | 1.09 | 1.11 | 1.04 | 0.496 | 0.194 | 0.57 | 0.446 | 0.416 | 0.271 | 0.0592 | 1.09 | 1.12 | 0.88 | 0.416 | 0.083
4 | SW 1573 | 0.658 | 0.665 | 0.234 | 0.0635 | 0.0625 |  |  |  |  |  | 0.478 | 0.478 | 0.393 | 0.179 | 0.0655 | 0.737 | 0.78 | 0.607 | 0.502 | 0.124
5 | NCI-H2228 | 0.51 | 0.674 | 0.294 | 0.0867 | 0.115 |  |  |  |  |  | 0.433 | 0.547 | 0.468 | 0.065 | 0.0792 | 0.776 | 0.709 | 0.506 | 0.154 | 0.0965
6 | NCI-H1650 | 0.657 | 0.383 | 0.205 | 0.132 | 0.133 |  |  |  |  |  | 0.519 | 0.526 | 0.549 | 0.113 | 0.0653 |  |  |  |  | 
7 | COR-L 105 | 0.747 | 0.606 | 0.456 | 0.316 | 0.272 |  |  |  |  |  | 0.461 | 0.429 | 0.353 | 0.205 | 0.223 | 0.815 | 1.08 | 1.01 | 0.331 | 0.192
8 | Calu-6 |  |  |  |  |  |  |  |  |  |  | 0.876 | 0.807 | 0.648 | 0.131 | 0.103 | 0.98 | 0.997 | 0.883 | 0.441 | 0.158
9 | NCI-H2009 | 0.664 | 0.585 | 0.486 | 0.0717 | 0.084 |  |  |  |  |  | 0.754 | 0.415 | 0.781 | 0.25 | 0.142 | 1.08 | 1.16 | 1.21 | 1.05 | 0.155
10 | NCI-H2342 | 0.656 | 0.524 | 0.616 | 0.634 | 0.587 | 0.64 | 0.486 | 0.478 | 0.582 | 0.433 |  |  |  |  |  |  |  |  |  | 
11 | NCI-H1299 |  |  |  |  |  |  |  |  |  |  | 0.725 | 0.853 | 0.596 | 0.107 | 0.0675 | 0.986 | 0.967 | 1.03 | 0.754 | 0.295
12 | ChaGo-K-1 | 0.576 | 0.539 | 0.623 | 0.48 | 0.149 | 0.847 | 0.716 | 0.886 | 0.691 | 0.164 | 0.605 | 0.912 | 1 | 0.292 | 0.271 |  |  |  |  | 
13 | NCI-H1703 |  |  |  |  |  | 0.117 | 0.102 | 0.133 | 0.178 | 0.137 |  | 0.24 | 0.179 | 0.182 | 0.131 | 0.67 | 0.466 | 1.06 | 0.148 | 0.0677
14 | UMC-11 | 0.461 | 0.472 | 0.493 | 0.325 | 0.148 |  |  |  |  |  | 0.79 | 0.813 | 0.606 | 0.158 | 0.108 | 0.937 | 1.03 | 0.934 | 0.508 | 0.133
15 | NCI-H522 | 0.632 | 0.556 | 0.724 | 0.439 | 0.465 | 0.794 | 0.719 | 0.715 | 0.384 | 0.356 |  |  |  |  |  |  |  |  |  | 
16 | NCI-H1623 | 0.434 | 0.473 | 0.468 | 0.36 | 0.295 |  |  |  |  |  |  |  |  |  |  |  |  |  |  | 
17 | IA-LM |  |  |  |  |  |  |  |  |  |  | 0.319 | 0.505 | 0.378 | 0.173 | 0.0595 | 0.561 | 0.61 | 0.878 | 0.752 | 0.729
18 | COR-L23 | 0.808 | 0.755 | 0.58 | 0.0553 | 0.0549 |  |  |  |  |  | 0.73 | 0.929 | 0.765 | 0.177 | 0.0607 | 0.868 | 0.809 | 0.839 | 0.173 | 0.0756
19 | SK-MES-1 | 0.64 | 0.591 | 0.47 | 0.14 | 0.128 |  |  |  |  |  | 0.341 | 0.357 | 0.279 | 0.168 | 0.134 | 1.06 | 1.04 | 0.939 | 0.796 | 0.146
20 | SK-LU-1 | 0.336 | 0.286 | 0.319 | 0.125 | 0.122 |  |  |  |  |  | 0.595 | 0.587 | 0.56 | 0.285 | 0.0825 | 0.93 | 1.18 | 0.84 | 0.238 | 0.142
21 | NCI-H1563 | 0.795 | 0.751 | 0.653 | 0.519 | 0.485 |  |  |  |  |  | 0.624 | 0.655 | 0.584 | 0.582 | 0.355 | 1.23 | 1.34 | 1.18 | 0.718 | 0.514
22 | NCI-H520 | 0.193 | 0.235 | 0.196 | 0.272 | 0.223 |  |  |  |  |  | 0.335 | 0.306 | 0.251 | 0.156 | 0.127 | 1.01 | 0.995 | 0.664 | 0.233 | 0.122
23 | NCI-H1648 | 0.256 | 0.293 | 0.251 | 0.256 | 0.229 | 0.549 | 0.634 | 0.771 | 0.518 | 0.269 |  |  |  |  |  |  |  |  |  | 
